Results reported in patent US10053498B2, “Compositions comprising serum albumin and p53 peptides fusion proteins” (University of the Sciences of Philadelphia, priority 2014, dated 2018).

Tests used:
MDA-MB-231 cells = experiment: CyQuant cytotoxicity assay in MDA-MB-231 cells; assay type: cell-based; conditions: 24 hrs, relative to rHSA-treated cells; nutlin 10 μM, ABT-263 2.5 μM (FIG. 13)
Experimental: (§2) Cytotoxicities were measured by CyQuant Assay and normalized according to rHSA-treated cells.

Hela cells = experiment: CyQuant cytotoxicity assay in Hela cells; assay type: cell-based; conditions: 24 hrs, relative to rHSA-treated cells; nutlin 10 μM, ABT-263 2.5 μM (FIG. 13)
Experimental: as §2

[1] = plasma protein; cited from earlier work
SJSA-1 cells [2] = experiment: CyQuant cytotoxicity assay in SJSA-1 cells; assay type: cell-based; conditions: 24 hrs, relative to rHSA-treated cells; nutlin 10 μM (FIG. 13)
Experimental: Osteosarcoma SJSA-1 cells (ATCC) were grown in RPMI media containing 10% FBS. Cytotoxicity assays were performed using SJSA-1 cells plated in 24- or 96-well plates at 20,000 or 5,000 cells per well, respectively. Cells were allowed to attach overnight. All treatments were added on day 2 in RPMI media containing 1% FBS plus the equivalent amounts of 1×PBS buffer. Unless otherwise indicated, cells were exposed to treatment media for 24 hours, at which time cytotoxicity was measured using the fluorometric CyQuant assay (Invitrogen, C35006) or the fluorometric Homogeneous Caspase assay (Roche, 03005372001), according to the manufacturer's instructions, for detection of apoptosis. All results were plotted relative to rHSA- or where indicated, rHSA/FA-FITC-treated cells.

p53 = experiment: Western blot and densitometry of p53 protein in SJSA-1 cells; assay type: cell-based; conditions: 10 μM, 24 hrs, densitometry
Experimental: (§1) SJSA-1 cells were lysed in buffer containing 20 mM Tris-HCl, 50 mM NaCl, 0.05% Triton X-100, and protease inhibitor cocktail. […] Mixtures were then allowed to incubate for 1 hour at RT.

MDM2 = experiment: Western blot and densitometry of MDM2 protein in SJSA-1 cells; assay type: cell-based; conditions: 10 μM, 24 hrs, densitometry
Experimental: as §1

SJSA-1 cells [3] = experiment: Cell death on co-treatment with MTX in SJSA-1 cells; assay type: cell-based; conditions: co-treatment with MTX versus single agents (FIG. 14A)
Experimental: As shown above, HSA-PMI may induce apoptosis by disrupting MDM2/MDMX-p53 interaction and/or by inducing the release of BAK from MCL-1 or BCL-Xl. […] To test this hypothesis, SJSA cells were treated with MTX alone, HSA-PMI/nutlin alone, or MTX and HSA-PMI/nutlin.

Chain of MDM2 (Q00987 whole entry): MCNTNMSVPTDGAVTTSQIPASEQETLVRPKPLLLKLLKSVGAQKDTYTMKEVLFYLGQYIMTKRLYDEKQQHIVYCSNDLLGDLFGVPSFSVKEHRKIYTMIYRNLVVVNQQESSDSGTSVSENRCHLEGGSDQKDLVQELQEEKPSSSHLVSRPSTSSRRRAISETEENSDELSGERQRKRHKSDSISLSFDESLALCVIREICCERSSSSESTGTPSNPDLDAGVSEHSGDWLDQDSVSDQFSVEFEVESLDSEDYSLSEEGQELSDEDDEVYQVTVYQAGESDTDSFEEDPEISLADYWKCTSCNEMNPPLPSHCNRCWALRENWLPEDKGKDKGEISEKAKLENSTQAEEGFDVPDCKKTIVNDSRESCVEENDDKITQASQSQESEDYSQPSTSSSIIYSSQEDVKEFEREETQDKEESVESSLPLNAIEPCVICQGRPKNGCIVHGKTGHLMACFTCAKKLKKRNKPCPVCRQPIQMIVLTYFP

Q: What does the source list for CC1(C)CCC(c2ccc(Cl)cc2)=C(CN2CCN(c3ccc(C(=O)NS(=O)(=O)c4ccc(N[C@H](CCN5CCOCC5)CSc5ccccc5)c(S(=O)(=O)C(F)(F)F)c4)cc3)CC2)C1 [ABT-263]?
A: cell death in MDA-MB-231 cells (p53 negative) (MDA-MB-231 cells): killed; cell death in Hela cells (p53 under-expressing) (Hela cells): killed

Q: For “HSA: human serum albumin, the most abundant plasma protein”, which average half-life [1] is on record?
A: The average half-life was 19 days.

Q: With nutlin as the compound, how does the “cell death in SJSA-1 cells (p53 positive)” value (SJSA-1 cells [2]) read?
A: The value was “killed”.

Q: What about the “increase in p53 protein” value (p53) of the same compound?
A: Its value is 11.5 fold.

Q: What about the “change in MDM2 protein expression” value (MDM2) of the same compound?
A: Its value is 5 fold.

Q: What about the “cell death in combination with MTX” value (SJSA-1 cells [3]) of the same compound?
A: Its value is “not additive”.
